Several values for one entry are separate records, joined by “and”; a condition that tells them apart may be missing. Equal entries are not always repeated.
Key:
ABL1 nonphosphorylated = target: T1, ABL1 nonphosphorylated (Homo sapiens, UniProt P00519); assay: KINOMEScan binding assay, nonphosphorylated ABL1
T1 construct: purchased DiscoverX (DiscoveRx) KINOMEScan
Procedure: In vitro inhibition of phosphorylated ABL1 is often used as a surrogate to determine if a kinase inhibitor is Type I or Type II without the need for crystal structures ([18]). […] In this regard, we performed binding assays using the KINOMEScan platform (DiscoveRx) and commercially available FLT3 mutants; the Kd for most of the tested proteins was in the sub-to-low nanomolar range with the exception of FLT3^ITD–D835Y (Table 2).
In vitro kinase assays were performed at DiscoverX. Briefly, compounds that bind the kinase active site prevent kinase binding to an immobilized ligand and will reduce the amount of kinase captured on solid support. […] Kinases used in the panel are tagged with DNA barcodes. Screening “hits” are identified by measuring the amount of kinase still bound to the immobilized ligand after compound treatment by using a quantitative, precise, and ultra-sensitive qPCR method that detects the associated DNA label. In a similar manner, KDs for test compound–kinase interactions were calculated by measuring the amount of kinase captured on the solid support as a function of the test compound concentration. Residence time determination assays were conducted by Enzymlogic.

[1] = test system: MOLM14 FLT3ITD-D835Y cell line; assay: AML cell line inhibition, WST-1 (SAR); assay type: cell-based, human; conditions: Homo sapiens, MOLM-14; MOLM14 FLT3ITD-D835Y cell line
Procedure: MOLM14 and MV411 cells were purchased from ATCC. […] MV411-luc cells were a gift from Sharyn Baker (The Ohio State University College of Pharmacy, Columbus, Ohio, USA). All cells were grown in RPMI supplemented with 10% FBS. One day prior to drug addition, 5 × 10^3 cells/well were plated in a 96-well plate. The next morning, HSN748 was serially diluted in DMSO, added to RPMI media and then added to cells. The assay was terminated 72 hours later with water soluble tertrazolium (WST-1; Clontech) and plates were read after an additional 4-hour incubation at 37°C using BioTeK HT plate reader (BioTek). Data were analyzed and graphed using GraphPad Prism Software (GraphPad). IC50s were calculated on GraphPad.

FLT3 ITD = assay: FRET binding kinetics and residence time; conditions: for FRET signal, binding kinetics: FLT3 ITD
Procedure: In vitro kinase assays were performed at DiscoverX. […] Kinases used in the panel are tagged with DNA barcodes. Screening “hits” are identified by measuring the amount of kinase still bound to the immobilized ligand after compound treatment by using a quantitative, precise, and ultra-sensitive qPCR method that detects the associated DNA label. […] Residence time determination assays were conducted by Enzymlogic.

[2] = test system: MOLM14-FLT3ITD-F691L cells; assay: MOLM14-F691L-luciferase intravenous xenograft, bioluminescence and survival; assay type: in vivo; conditions: MOLM14-FLT3ITD-F691L-recipient mice; once daily; in words
Text: (§1) Tumor cell growth was monitored by imaging for bioluminescence as a measure of disease burden.
(§2) Mice were imaged 3 days later and sorted into 5 mice per group so that luminescence (as a surrogate marker for disease burden) was equal. Dosing started the same day and continued once daily, 5 days/week. Mice were imaged for efficacy once per week and body weight recorded daily. Mice were euthanized when 20% body weight loss, hind limb paralysis, or lack of ability to eat/drink (moribund) were noted. […] Blood samples were collected at indicated time points, and levels of […] in plasma were quantified by LC/MS. Western blots of tumors resected from animals after dosing was performed as described above.

[3] = Pharmacokinetics, plasma concentration after intravenous and oral dose; assay type: in vivo; conditions: CD1, mouse
Text: as §1, §2

[4] = test system: phosphorylation of FLT3, STAT5, and ERK; assay: Pharmacodynamics in subcutaneous MOLM14 tumors (pFLT3, pSTAT5, pERK); assay type: in vivo, mice; conditions: single dose, in words
Text: as §1, §2

T1 sequence (P00519 whole entry): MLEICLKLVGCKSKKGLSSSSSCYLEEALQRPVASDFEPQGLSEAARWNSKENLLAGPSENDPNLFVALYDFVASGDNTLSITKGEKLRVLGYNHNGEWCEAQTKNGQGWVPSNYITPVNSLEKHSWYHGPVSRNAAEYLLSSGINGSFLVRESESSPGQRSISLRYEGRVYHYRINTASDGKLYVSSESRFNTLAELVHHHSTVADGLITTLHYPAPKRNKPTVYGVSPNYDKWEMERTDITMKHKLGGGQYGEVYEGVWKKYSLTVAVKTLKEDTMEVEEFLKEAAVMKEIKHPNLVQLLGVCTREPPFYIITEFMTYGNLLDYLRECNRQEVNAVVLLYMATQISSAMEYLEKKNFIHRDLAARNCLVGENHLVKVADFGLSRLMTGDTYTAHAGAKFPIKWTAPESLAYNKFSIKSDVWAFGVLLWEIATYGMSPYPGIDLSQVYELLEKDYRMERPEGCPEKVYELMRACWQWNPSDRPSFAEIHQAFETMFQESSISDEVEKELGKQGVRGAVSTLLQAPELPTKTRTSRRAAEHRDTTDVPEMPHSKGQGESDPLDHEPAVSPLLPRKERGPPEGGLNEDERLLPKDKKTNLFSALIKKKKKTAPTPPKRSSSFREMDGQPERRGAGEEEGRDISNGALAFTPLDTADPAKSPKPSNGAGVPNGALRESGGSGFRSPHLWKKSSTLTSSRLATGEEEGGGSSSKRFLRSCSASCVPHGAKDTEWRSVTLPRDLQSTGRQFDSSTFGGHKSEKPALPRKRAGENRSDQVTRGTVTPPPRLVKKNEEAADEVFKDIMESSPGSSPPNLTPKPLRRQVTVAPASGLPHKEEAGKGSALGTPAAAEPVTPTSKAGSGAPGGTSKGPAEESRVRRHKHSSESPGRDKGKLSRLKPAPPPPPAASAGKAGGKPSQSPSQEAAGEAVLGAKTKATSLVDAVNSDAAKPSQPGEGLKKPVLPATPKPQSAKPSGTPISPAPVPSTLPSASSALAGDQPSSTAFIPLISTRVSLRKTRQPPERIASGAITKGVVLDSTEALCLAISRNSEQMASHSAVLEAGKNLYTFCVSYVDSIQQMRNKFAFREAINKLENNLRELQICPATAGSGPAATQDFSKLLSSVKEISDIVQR

`CN1CCN(Cc2ccc(NC(=O)c3cncc(C#Cc4cnc5cccnn45)c3)cc2C(F)(F)F)CC1` [HSN748] showed a Kd (ABL1 nonphosphorylated; read-out: Kd, nonphosphorylated form of ABL) of 0.29 nM, a Hill slope (ABL1 nonphosphorylated; variable slope best fit) of −1.328 and an IC50 [1] of 5 nM. For the same molecule, the “FRET signal, binding kinetics” value (FLT3 ITD; 1 nM, 2 min) was 1512.06, the “FRET signal, binding kinetics” value (FLT3 ITD; 1 nM, 2.77 min) was 1487.03 and the “FRET signal, binding kinetics” value (FLT3 ITD; 1 nM, 3.53 min) was 1572.91. The “FRET signal, binding kinetics” value (FLT3 ITD; 1 nM, 4.3 min) was 1613.6, the “FRET signal, binding kinetics” value (FLT3 ITD; 1 nM, 5.07 min) was 1530.78 and the “FRET signal, binding kinetics” value (FLT3 ITD; 1 nM, 5.83 min) was 1590.19. The “FRET signal, binding kinetics” value (FLT3 ITD; 1 nM, 7.37 min) was 1585.41, the “FRET signal, binding kinetics” value (FLT3 ITD; 1 nM, 8.13 min) was 1581.76 and the “FRET signal, binding kinetics” value (FLT3 ITD; 1 nM, 8.9 min) was 1498.93. The “FRET signal, binding kinetics” value (FLT3 ITD; 1 nM, 13.9 min) was 1583.26, the “FRET signal, binding kinetics” value (FLT3 ITD; 1 nM, 18.9 min) was 1647.78 and the “FRET signal, binding kinetics” value (FLT3 ITD; 1 nM, 23.9 min) was 1638.88. The “FRET signal, binding kinetics” value (FLT3 ITD; 1 nM, 28.9 min) was 1586.36, the “FRET signal, binding kinetics” value (FLT3 ITD; 1 nM, 38.9 min) was 1562.79 and the “FRET signal, binding kinetics” value (FLT3 ITD; 1 nM, 43.9 min) was 1648.68. The “FRET signal, binding kinetics” value (FLT3 ITD; 1 nM, 48.9 min) was 1595.35, the “FRET signal, binding kinetics” value (FLT3 ITD; 1 nM, 53.9 min) was 1532.83 and the “FRET signal, binding kinetics” value (FLT3 ITD; 1 nM, 58.9 min) was 1596.3. The “FRET signal, binding kinetics” value (FLT3 ITD; 1 nM, 63.9 min) was 1539.46, the “FRET signal, binding kinetics” value (FLT3 ITD; 1 nM, 68.9 min) was 1619.86 and the “FRET signal, binding kinetics” value (FLT3 ITD; 1 nM, 83.9 min) was 1598.54. For the same molecule, the “FRET signal, binding kinetics” value (FLT3 ITD; 1 nM, 98.9 min) was 1544.46, the “FRET signal, binding kinetics” value (FLT3 ITD; 10 nM, 2 min) was 1556.76 and the “FRET signal, binding kinetics” value (FLT3 ITD; 10 nM, 2.77 min) was 1532. The “FRET signal, binding kinetics” value (FLT3 ITD; 10 nM, 3.53 min) was 1494.49, the “FRET signal, binding kinetics” value (FLT3 ITD; 10 nM, 4.3 min) was 1511.28 and the “FRET signal, binding kinetics” value (FLT3 ITD; 10 nM, 5.07 min) was 1435.31. For the same molecule, the “FRET signal, binding kinetics” value (FLT3 ITD; 10 nM, 5.83 min) was 1564.74, the “FRET signal, binding kinetics” value (FLT3 ITD; 10 nM, 7.37 min) was 1479.54 and the “FRET signal, binding kinetics” value (FLT3 ITD; 10 nM, 8.13 min) was 1456.37. The “FRET signal, binding kinetics” value (FLT3 ITD; 10 nM, 8.9 min) was 1494.89, the “FRET signal, binding kinetics” value (FLT3 ITD; 10 nM, 13.9 min) was 1496.84 and the “FRET signal, binding kinetics” value (FLT3 ITD; 10 nM, 18.9 min) was 1488.39. For the same molecule, the “FRET signal, binding kinetics” value (FLT3 ITD; 10 nM, 23.9 min) was 1452.19, the “FRET signal, binding kinetics” value (FLT3 ITD; 10 nM, 28.9 min) was 1416.74 and the “FRET signal, binding kinetics” value (FLT3 ITD; 10 nM, 38.9 min) was 1434.42. The “FRET signal, binding kinetics” value (FLT3 ITD; 10 nM, 43.9 min) was 1355.13, the “FRET signal, binding kinetics” value (FLT3 ITD; 10 nM, 48.9 min) was 1398.18 and the “FRET signal, binding kinetics” value (FLT3 ITD; 10 nM, 53.9 min) was 1334.89. The “FRET signal, binding kinetics” value (FLT3 ITD; 10 nM, 58.9 min) was 1357.06, the “FRET signal, binding kinetics” value (FLT3 ITD; 10 nM, 63.9 min) was 1378.07 and the “FRET signal, binding kinetics” value (FLT3 ITD; 10 nM, 68.9 min) was 1344.3. For the same molecule, the “FRET signal, binding kinetics” value (FLT3 ITD; 10 nM, 83.9 min) was 1246.36, the “FRET signal, binding kinetics” value (FLT3 ITD; 10 nM, 98.9 min) was 1307.33 and the “FRET signal, binding kinetics” value (FLT3 ITD; 100 nM, 2 min) was 1334.87. For the same molecule, the “FRET signal, binding kinetics” value (FLT3 ITD; 100 nM, 2.77 min) was 1338.71, the “FRET signal, binding kinetics” value (FLT3 ITD; 100 nM, 3.53 min) was 1298.24 and the “FRET signal, binding kinetics” value (FLT3 ITD; 100 nM, 4.3 min) was 1250.88. For the same molecule, the “FRET signal, binding kinetics” value (FLT3 ITD; 100 nM, 5.07 min) was 1250, the “FRET signal, binding kinetics” value (FLT3 ITD; 100 nM, 5.83 min) was 1333.21 and the “FRET signal, binding kinetics” value (FLT3 ITD; 100 nM, 7.37 min) was 1201.9. For the same molecule, the “FRET signal, binding kinetics” value (FLT3 ITD; 100 nM, 8.13 min) was 1255.37, the “FRET signal, binding kinetics” value (FLT3 ITD; 100 nM, 8.9 min) was 1263.82 and the “FRET signal, binding kinetics” value (FLT3 ITD; 100 nM, 13.9 min) was 1211.36. The “FRET signal, binding kinetics” value (FLT3 ITD; 100 nM, 18.9 min) was 1144.36, the “FRET signal, binding kinetics” value (FLT3 ITD; 100 nM, 23.9 min) was 1077.9 and the “FRET signal, binding kinetics” value (FLT3 ITD; 100 nM, 28.9 min) was 1050.79. The “FRET signal, binding kinetics” value (FLT3 ITD; 100 nM, 38.9 min) was 975.65, the “FRET signal, binding kinetics” value (FLT3 ITD; 100 nM, 43.9 min) was 956.2 and the “FRET signal, binding kinetics” value (FLT3 ITD; 100 nM, 48.9 min) was 922.13. The “FRET signal, binding kinetics” value (FLT3 ITD; 100 nM, 53.9 min) was 892.86, the “FRET signal, binding kinetics” value (FLT3 ITD; 100 nM, 58.9 min) was 898.11 and the “FRET signal, binding kinetics” value (FLT3 ITD; 100 nM, 63.9 min) was 902.59. For the same molecule, the “FRET signal, binding kinetics” value (FLT3 ITD; 100 nM, 68.9 min) was 872.96, the “FRET signal, binding kinetics” value (FLT3 ITD; 100 nM, 83.9 min) was 832.56 and the “FRET signal, binding kinetics” value (FLT3 ITD; 100 nM, 98.9 min) was 864.08. The “FRET signal, binding kinetics” value (FLT3 ITD; 1000 nM, 2 min) was 1010.31, the “FRET signal, binding kinetics” value (FLT3 ITD; 1000 nM, 2.77 min) was 923.69 and the “FRET signal, binding kinetics” value (FLT3 ITD; 1000 nM, 3.53 min) was 953.68. For the same molecule, the “FRET signal, binding kinetics” value (FLT3 ITD; 1000 nM, 4.3 min) was 956.11, the “FRET signal, binding kinetics” value (FLT3 ITD; 1000 nM, 5.07 min) was 958.83 and the “FRET signal, binding kinetics” value (FLT3 ITD; 1000 nM, 5.83 min) was 826.74. The “FRET signal, binding kinetics” value (FLT3 ITD; 1000 nM, 7.37 min) was 886.29, the “FRET signal, binding kinetics” value (FLT3 ITD; 1000 nM, 8.13 min) was 862.35 and the “FRET signal, binding kinetics” value (FLT3 ITD; 1000 nM, 8.9 min) was 825.31. For the same molecule, the “FRET signal, binding kinetics” value (FLT3 ITD; 1000 nM, 13.9 min) was 870.86, the “FRET signal, binding kinetics” value (FLT3 ITD; 1000 nM, 18.9 min) was 793.49 and the “FRET signal, binding kinetics” value (FLT3 ITD; 1000 nM, 23.9 min) was 753.95. For the same molecule, the “FRET signal, binding kinetics” value (FLT3 ITD; 1000 nM, 28.9 min) was 726.19, the “FRET signal, binding kinetics” value (FLT3 ITD; 1000 nM, 38.9 min) was 747.74 and the “FRET signal, binding kinetics” value (FLT3 ITD; 1000 nM, 43.9 min) was 750.06. The “FRET signal, binding kinetics” value (FLT3 ITD; 1000 nM, 48.9 min) was 700.07, the “FRET signal, binding kinetics” value (FLT3 ITD; 1000 nM, 53.9 min) was 725.06 and the “FRET signal, binding kinetics” value (FLT3 ITD; 1000 nM, 58.9 min) was 665.35. For the same molecule, the “FRET signal, binding kinetics” value (FLT3 ITD; 1000 nM, 63.9 min) was 690.63, the “FRET signal, binding kinetics” value (FLT3 ITD; 1000 nM, 68.9 min) was 665.35 and the “FRET signal, binding kinetics” value (FLT3 ITD; 1000 nM, 83.9 min) was 692.83. For the same molecule, the “FRET signal, binding kinetics” value (FLT3 ITD; 1000 nM, 98.9 min) was 673.59, the “drug occupancy compared with Gilteritinib” value (FLT3 ITD; ratio of residence times) was 6.4 fold and the “effect on tumor growth and survival compared with Gilteritinib” value [2] was “superior inhibitory effect”. For the same molecule, the concentration at 24 h [3] was ~5 ng/mL and ~9.6 nM, the Tmax ([3]; read-out: time of peak plasma concentration) was 3 h and the “phosphorylation of FLT3, STAT5, and ERK in tumors at 24 hours” value [4] was “suppression of phosphorylation was maintained”.

— publication PMC11178545, “Alkynyl nicotinamides show antileukemic activity in drug-resistant acute myeloid leukemia” (The Journal of Clinical Investigation, 2024)
